Measurements from patent US20200010489A1, “ZWITTERIONIC SILATRANE-BASED MATERIAL AND ANTIFOULING SUBSTRATE CONTAINING SAME” (National Central University, priority 2018, published 2020).

Experiment: Chemical stability test of dry solid powders (FTIR, photographs)
Assay type: physicochemical
Settings: RH=79%
Method: The dry solid powders of SBSi and SBSiT obtained above are placed in a laboratory environment (RH=79%, temperature=24° C.) for 24 hours, and the chemical stabilities of SBSi and SBSiT are examined by Fourier transform infrared spectroscopy (FTIR). Referring to FIG. 1A, signals is centered at 1050 and 1612 cm^−1 corresponding to Vas(SO3^−) and Vb(N(CH3)^+), respectively, so as to ensure that all samples have a sulfobetaine moiety.

## CO[Si](CCC[N+](C)(C)CCCS(=O)(=O)[O-])(OC)OC [SBSi, sulfobetaine silane, reference compound]
Dry solid powder, temperature=24° C.
  FTIR spectra / absorption intensity after storage for 24 hours compared with before storage: significantly lower
Moisture environment, 24° C.
  appearance of solid after storage for 24 hours (hygroscopic properties): clearly deliquescent
